# Measured values from patent US10131744B2, “Antimicrobial polyamide compositions and mastitis treatment” (priority 2013, dated 2018).
# Key:
# [1] = tested on: E. faecalis (Str-15) ATCC 29212; assay: MIC in broth against E. faecalis; type: cell-based; conditions: Enterococcus faecalis, ATCC29212
# Experimental: (§1) The antimicrobial efficacy of twenty-five antimicrobial polymers (and Erythromycin) was evaluated using an MIC assay. […] Overall, the antimicrobial polymer-containing compositions performed comparably well, or better, against the pathogens, as compared to Erythromycin (ERY).
# [2] = tested on: S. pneumoniae (Str-53) ATCC 49619; assay: MIC in broth against S. pneumoniae; type: cell-based; conditions: Streptococcus pneumoniae, ATCC49619
# Experimental: as §1
# [3] = tested on: Bordetella bronchiseptica; assay: MIC in broth against Bordetella bronchiseptica; type: cell-based
# Experimental: (§2) The antimicrobial efficacy of twenty-five antimicrobial polymers (and Erythromycin) was evaluated using an MIC assay. For each study, a doubling dilution concentration of each antimicrobial polymer was prepared at 2× the final concentration range (0.12 to 16 μg/mL), and 100 μL of the API-null formulation was dispensed into the negative control wells. Overall, the antimicrobial polymer-containing compositions performed comparably well, or better, against the pathogens, as compared to Erythromycin (ERY).
# Klebsiella species = assay: MIC in broth against Klebsiella species; type: cell-based
# Experimental: as §2
# Moraxella bovis = assay: MIC in broth against Moraxella bovis; type: cell-based
# Experimental: as §2
# Proteus mirabilis = assay: MIC in broth against Proteus mirabilis; type: cell-based
# Experimental: as §2
# [4] = tested on: Pasteurella multocida (Canine and BRD); assay: MIC in broth against Pasteurella multocida; type: cell-based
# Experimental: as §2
# Pseudomonas aeruginosa = assay: MIC in broth against Pseudomonas aeruginosa; type: cell-based; design: unit not given beside the values
# Experimental: as §2
# Streptococcus agalactiae = assay: MIC in broth against Streptococcus agalactiae; type: cell-based; design: unit not given beside the values
# Experimental: as §2
# [5] = tested on: Coagulase negative Staphylococcus species; assay: MIC in broth against coagulase negative Staphylococcus species; type: cell-based
# Experimental: as §2
# [6] = tested on: Streptococcus dysgalactiae; assay: MIC in broth against Streptococcus dysgalactiae; type: cell-based
# Experimental: as §2
# [7] = tested on: Staphylococcus aureus (including MRSA); conditions: S. aureus (Sta-3) ATCC 29213; cited from earlier work
# [8] = tested on: E. faecalis (Str-15) ATCC 29212; conditions: cited from earlier work
# [9] = tested on: S. pneumoniae (Str-53) ATCC 49619; conditions: cited from earlier work
smiles,measurement,setting,value
"CC[C@H]1OC(=O)[C@H](C)[C@@H](O[C@H]2C[C@@](C)(OC)[C@@H](O)[C@H](C)O2)[C@H](C)[C@@H](O[C@@H]2O[C@H](C)C[C@H](N(C)C)[C@H]2O)[C@](C)(O)C[C@@H](C)C(=O)[C@H](C)[C@@H](O)[C@]1(C)O [Ery, Erythromycin]",MIC,[1],2 µg/mL
same,MIC,[2],0.06 µg/mL
same,MIC,[3]; isolate # 78 (canine/feline),8 µg/mL
same,MIC,[3]; isolate # 79 (canine/feline),8 µg/mL
same,MIC,[3]; isolate # 80 (canine/feline),2 µg/mL
same,MIC,[3]; isolate # 81 (canine/feline),8 µg/mL
same,MIC,[3]; isolate # 82 (canine/feline),2 µg/mL
same,MIC,[3]; isolate # 83 (canine/feline),8 µg/mL
same,MIC,[3]; isolate # 84 (canine/feline),8 µg/mL
same,MIC,[3]; isolate # 85 (canine/feline),> 8 µg/mL
same,MIC,[3]; isolate # 86 (canine/feline),> 8 µg/mL
same,MIC,[3]; isolate # 87 (canine/feline),8 µg/mL
same,MIC,"Klebsiella species; Klebsiella, isolate # 28",> 8 µg/mL
same,MIC against Klebsiella species,Klebsiella species; isolate # 29,>8 µg/mL
same,MIC against Klebsiella species,Klebsiella species; isolate # 30,>8 µg/mL
same,MIC against Klebsiella species,Klebsiella species; isolate # 31,>8 µg/mL
same,MIC against Klebsiella species,Klebsiella species; isolate # 32,>8 µg/mL
same,MIC against Klebsiella species,Klebsiella species; isolate # 33,>8 µg/mL
same,MIC against Klebsiella species,Klebsiella species; isolate # 34,>8 µg/mL
same,MIC against Klebsiella species,Klebsiella species; isolate # 35,>8 µg/mL
same,MIC against Klebsiella species,Klebsiella species; isolate # 36,>8 µg/mL
same,MIC against Klebsiella species,Klebsiella species; isolate # 37,>8 µg/mL
same,MIC against Klebsiella species,Klebsiella species; isolate # 38,>8 µg/mL
same,MIC against Klebsiella species,Klebsiella species; isolate # 39,>8 µg/mL
same,MIC against Klebsiella species,Klebsiella species; isolate # 40,>8 µg/mL
same,MIC against Klebsiella species,Klebsiella species; isolate # 41,>8 µg/mL
same,MIC against Klebsiella species,Klebsiella species; isolate # 42,>8 µg/mL
same,MIC against Klebsiella species,Klebsiella species; isolate # 43,>8 µg/mL
same,MIC against Klebsiella species,Klebsiella species; isolate # 44,>8 µg/mL
same,MIC against Klebsiella species,Klebsiella species; isolate # 45,>8 µg/mL
same,MIC against Klebsiella species,Klebsiella species; isolate # 46,>8 µg/mL
same,MIC against Klebsiella species,Klebsiella species; isolate # 47,>8 µg/mL
same,MIC,Moraxella bovis; isolate # 88,0.3 µg/mL
same,MIC,Moraxella bovis; isolate # 89,0.5 µg/mL
same,MIC,Moraxella bovis; isolate # 90,0.5 µg/mL
same,MIC,Moraxella bovis; isolate # 91,1 µg/mL
same,MIC,Moraxella bovis; isolate # 92,0.5 µg/mL
same,MIC,Moraxella bovis; isolate # 93,0.3 µg/mL
same,MIC,Moraxella bovis; isolate # 94,0.5 µg/mL
same,MIC,Moraxella bovis; isolate # 95,0.5 µg/mL
same,MIC,Moraxella bovis; isolate # 96,0.5 µg/mL
same,MIC,Moraxella bovis; isolate # 97,0.5 µg/mL
same,MIC,"Proteus mirabilis; Proteus mirabilis, isolate # 52",> 8 µg/mL
same,MIC against Proteus mirabilis,Proteus mirabilis; isolate # 48,>8 µg/mL
same,MIC against Proteus mirabilis,Proteus mirabilis; isolate # 49,>8 µg/mL
same,MIC against Proteus mirabilis,Proteus mirabilis; isolate # 50,>8 µg/mL
same,MIC against Proteus mirabilis,Proteus mirabilis; isolate # 51,>8 µg/mL
same,MIC against Proteus mirabilis,Proteus mirabilis; isolate # 53,>8 µg/mL
same,MIC against Proteus mirabilis,Proteus mirabilis; isolate # 54,>8 µg/mL
same,MIC against Proteus mirabilis,Proteus mirabilis; isolate # 55,>8 µg/mL
same,MIC against Proteus mirabilis,Proteus mirabilis; isolate # 56,>8 µg/mL
same,MIC against Proteus mirabilis,Proteus mirabilis; isolate # 57,>8 µg/mL
same,MIC against Pasteurella multocida,[4]; strain # 168,0.5
same,MIC against Pasteurella multocida,[4]; strain # 169,1
same,MIC against Pasteurella multocida,[4]; strain # 170,1
same,MIC against Pasteurella multocida,[4]; strain # 171,0.5
same,MIC against Pasteurella multocida,[4]; strain # 172,1
same,MIC against Pasteurella multocida,[4]; strain # 173,2
same,MIC against Pasteurella multocida,[4]; strain # 174,8
same,MIC against Pasteurella multocida,[4]; strain # 175,1
same,MIC against Pasteurella multocida,[4]; strain # 176,0.5
same,MIC against Pasteurella multocida,[4]; strain # 177,2
same,MIC against Pasteurella multocida,[4]; strain # 178,4
same,MIC against Pasteurella multocida,[4]; strain # 179,2
same,MIC against Pasteurella multocida,[4]; strain # 180,2
same,MIC against Pasteurella multocida,[4]; strain # 181,2
same,MIC against Pasteurella multocida,[4]; strain # 182,2
same,MIC against Pasteurella multocida,[4]; strain # 183,>8
same,MIC against Pasteurella multocida,[4]; strain # 184,2
same,MIC against Pasteurella multocida,[4]; strain # 185,>8
same,MIC against Pasteurella multocida,[4]; strain # 186,2
same,MIC against Pasteurella multocida,[4]; strain # 187,>8
same,MIC against Pseudomonas aeruginosa,Pseudomonas aeruginosa; strain # 58,>8
same,MIC against Pseudomonas aeruginosa,Pseudomonas aeruginosa; strain # 59,>8
same,MIC against Pseudomonas aeruginosa,Pseudomonas aeruginosa; strain # 60,>8
same,MIC against Pseudomonas aeruginosa,Pseudomonas aeruginosa; strain # 61,>8
same,MIC against Pseudomonas aeruginosa,Pseudomonas aeruginosa; strain # 62,>8
same,MIC against Pseudomonas aeruginosa,Pseudomonas aeruginosa; strain # 63,>8
same,MIC against Pseudomonas aeruginosa,Pseudomonas aeruginosa; strain # 64,>8
same,MIC against Pseudomonas aeruginosa,Pseudomonas aeruginosa; strain # 65,>8
same,MIC against Pseudomonas aeruginosa,Pseudomonas aeruginosa; strain # 66,>8
same,MIC against Pseudomonas aeruginosa,Pseudomonas aeruginosa; strain # 67,>8
same,MIC against Streptococcus agalactiae,Streptococcus agalactiae; isolate # 188,0.03
same,MIC against Streptococcus agalactiae,Streptococcus agalactiae; isolate # 189,0.06
same,MIC against Streptococcus agalactiae,Streptococcus agalactiae; isolate # 190,0.03
same,MIC against Streptococcus agalactiae,Streptococcus agalactiae; isolate # 191,0.03
same,MIC against Streptococcus agalactiae,Streptococcus agalactiae; isolate # 192,0.06
same,MIC against Streptococcus agalactiae,Streptococcus agalactiae; isolate # 193,0.06
same,MIC against Streptococcus agalactiae,Streptococcus agalactiae; isolate # 194,0.03
same,MIC against Streptococcus agalactiae,Streptococcus agalactiae; isolate # 195,0.03
same,MIC against Streptococcus agalactiae,Streptococcus agalactiae; isolate # 196,0.03
same,MIC against Streptococcus agalactiae,Streptococcus agalactiae; isolate # 197,0.03
same,MIC,[5]; isolate # 148,0.12 µg/mL
same,MIC,[5]; isolate # 149,0.12 µg/mL
same,MIC,[5]; isolate # 150,0.25 µg/mL
same,MIC,[5]; isolate # 151,0.25 µg/mL
same,MIC,[5]; isolate # 152,0.25 µg/mL
same,MIC,[5]; isolate # 153,0.5 µg/mL
same,MIC,[5]; isolate # 154,0.5 µg/mL
same,MIC,[5]; isolate # 155,0.25 µg/mL
same,MIC,[5]; isolate # 156,0.25 µg/mL
same,MIC,[5]; isolate # 157,0.12 µg/mL
same,MIC,[6]; isolate # 208,0.06 µg/mL
same,MIC,[6]; isolate # 209,0.06 µg/mL
same,MIC,[6]; isolate # 210,0.12 µg/mL
same,MIC,[6]; isolate # 211,0.06 µg/mL
same,MIC,[6]; isolate # 212,0.12 µg/mL
same,MIC,[6]; isolate # 213,0.12 µg/mL
same,MIC,[6]; isolate # 214,0.06 µg/mL
same,MIC,[6]; isolate # 215,0.12 µg/mL
same,MIC,[6]; isolate # 216,0.06 µg/mL
same,MIC,[6]; isolate # 217,0.12 µg/mL
same,Known range (MIC),[7],0.25 to 1 µg/mL
same,Known range (MIC),[8],1 to 4 µg/mL
same,Known range (MIC),[9],.03 to .12 µg/mL
